The source of these data is patent publication US12018021B2 (UCB Biopharma SRL, priority 2018, dated 2024).

In this test the target is IgE-Tb / sFcεRIα-Y131A-AF488 (Homo sapiens, UniProt P01854, N146Q/N252Q). The experiment in a line: IgE-Tb / sFcεRIα-Y131A-AF488 FRET assay (protocol for examples 234 to 501). In kind it is binding. The conditions noted are these: examples 234 to 501: compound with IgE-Tb 30 minutes before sFcεRIα-Y131A-AF488, incubated 18 hours at room temperature; read-out: Y131A FRET IC50 range. A digest of the protocol:
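Compounds (10-point 3-fold series, top usually 10 μM, 2% DMSO) preincubated 30 min with 5 nM IgE-Tb, then 25 nM sFcεRIα-Y131A-AF488 added; 18 h at room temperature in the dark. TR-FRET ratio 520/490 nm after 337 nm excitation, background-subtracted; IC50 by four-parameter logistic fit.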

The IC50 is the point on the concentration scale where inhibition reaches its midpoint.

IgE-Tb / sFcεRIα-Y131A-AF488, sequence (P01854 whole entry N146Q/N252Q): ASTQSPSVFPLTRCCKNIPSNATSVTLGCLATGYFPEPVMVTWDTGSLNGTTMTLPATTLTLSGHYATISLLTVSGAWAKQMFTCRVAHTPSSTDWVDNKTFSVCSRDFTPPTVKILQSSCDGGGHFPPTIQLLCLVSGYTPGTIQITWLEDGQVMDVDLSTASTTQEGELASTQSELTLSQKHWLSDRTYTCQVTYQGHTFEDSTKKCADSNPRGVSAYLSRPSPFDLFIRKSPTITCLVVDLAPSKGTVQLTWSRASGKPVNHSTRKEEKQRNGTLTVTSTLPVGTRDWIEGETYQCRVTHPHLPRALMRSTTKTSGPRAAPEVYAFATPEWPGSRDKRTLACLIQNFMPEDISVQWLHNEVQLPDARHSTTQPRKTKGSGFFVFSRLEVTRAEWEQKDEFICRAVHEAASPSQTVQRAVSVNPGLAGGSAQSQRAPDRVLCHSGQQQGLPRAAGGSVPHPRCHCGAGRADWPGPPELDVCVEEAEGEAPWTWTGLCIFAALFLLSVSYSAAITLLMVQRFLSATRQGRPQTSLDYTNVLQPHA

Take `Cn1nc(OC(F)F)cc1Nc1nncn1[C@H]1CCc2sc(NC(=O)[C@H]3C[C@@H]3F)c(C(=O)NC[C@@H]3C[C@@H]3F)c2C1` [Example 322, (5S)-5-[3-[[5-(difluoromethoxy)-2-methylpyrazol-3-yl]amino]-1,2,4-triazol-4-yl]-2-[[(1R,2S)-2-fluorocyclopropanecarbonyl]amino]-N-[[(1S,2S)-2-fluorocyclopropyl]methyl]-4,5,6,7-tetrahydro-1-benzothiophene-3-carboxamide]: the IC50 was less than 1000 nM.
For `Cc1nscc1Nc1nncn1[C@H]1CCc2sc(NC(=O)C3CC34CC4)c(C(=O)NCC3CC3)c2C1` (stereo partly drawn) [Example 329, (5S)—N-(cyclopropylmethyl)-5-[3-[(3-methyl-1,2-thiazol-4-yl)amino]-1,2,4-triazol-4-yl]-2-(spiro[2.2]pentane-2-carbonylamino)-4,5,6,7-tetrahydro-1-benzothiophene-3-carboxamide] the value was less than 1000 nM; for `COc1cc(Nc2nncn2[C@H]2CCc3sc(NC(=O)C4CC4)c(C(=O)NCC4CC4)c3C2)n(C)n1` [Example 337, (5S)-2-(cyclopropanecarbonylamino)-N-(cyclopropylmethyl)-5-[3-[(5-methoxy-2-methylpyrazol-3-yl)amino]-1,2,4-triazol-4-yl]-4,5,6,7-tetrahydro-1-benzothiophene-3-carboxamide], less than 1000 nM; for `Cn1nc(OC(F)F)cc1Nc1nncn1[C@H]1CCc2sc(NC(=O)[C@H]3C[C@H](F)C3)c(C(=O)NCC3CC3)c2C1` [Example 343, (5S)—N-(cyclopropylmethyl)-5-[3-[[5-(difluoromethoxy)-2-methylpyrazol-3-yl]amino]-1,2,4-triazol-4-yl]-2-[trans-(3-fluorocyclobutanecarbonyl)amino]-4,5,6,7-tetrahydro-1-benzothiophene-3-carboxamide], less than 1000 nM.
For the molecule `Cn1nc(OC(F)F)cc1Nc1nncn1[C@H]1CCc2sc(NC(=O)C3CC(F)(F)C3)c(C(=O)NCC3CC3)c2C1` [Example 346, (5S)—N-(cyclopropylmethyl)-2-[(3,3-difluorocyclobutanecarbonyl)amino]-5-[3-[[5-(difluoromethoxy)-2-methylpyrazol-3-yl]amino]-1,2,4-triazol-4-yl]-4,5,6,7-tetrahydro-1-benzothiophene-3-carboxamide], the IC50 is less than 1000 nM.
As to `Cn1nc(OC(F)F)cc1Nc1nncn1[C@H]1CCc2sc(NC(=O)[C@H]3C[C@@H](F)C3)c(C(=O)NCC3CC3)c2C1` [Example 347, (5S)—N-(cyclopropylmethyl)-5-[3-[[5-(difluoromethoxy)-2-methylpyrazol-3-yl]amino]-1,2,4-triazol-4-yl]-2-[cis-(3-fluorocyclobutanecarbonyl)amino]-4,5,6,7-tetrahydro-1-benzothiophene-3-carboxamide], the half-inhibitory concentration (IC50) was less than 1000 nM.
The value for `Cn1nc(OC(F)F)cc1Nc1nncn1[C@H]1CCc2sc(NC(=O)C3CC3)c(C(=O)NCC3CC3)c2C1` [Example 351, (5S)-2-(cyclopropanecarbonylamino)-N-(cyclopropylmethyl)-5-[3-[[5-(difluoromethoxy)-2-methylpyrazol-3-yl]amino]-1,2,4-triazol-4-yl]-4,5,6,7-tetrahydro-1-benzothiophene-3-carboxamide] was less than 1000 nM; that for `C[C@H]1C[C@@H]1C(=O)Nc1sc2c(c1C(=O)NCC1CC1)C[C@@H](n1cnnc1Nc1cc(OC(F)F)nn1C)CC2` [Example 352, (5S)—N-(cyclopropylmethyl)-5-[3-[[5-(difluoromethoxy)-2-methylpyrazol-3-yl]amino]-1,2,4-triazol-4-yl]-2-[[(1S,2S)-2-methylcyclopropanecarbonyl]amino]-4,5,6,7-tetrahydro-1-benzothiophene-3-carboxamide] was less than 1000 nM; that for `Cn1nc(C(F)F)cc1Nc1nncn1[C@H]1CCc2sc(NC(=O)C3CC(F)C3)c(C(=O)NCC3CC3)c2C1` (stereo partly drawn) [Example 353, (5S)—N-(cyclopropylmethyl)-5-[3-[[5-(difluoromethyl)-2-methylpyrazol-3-yl]amino]-1,2,4-triazol-4-yl]-2-[(3-fluorocyclobutanecarbonyl)amino]-4,5,6,7-tetrahydro-1-benzothiophene-3-carboxamide] was less than 1000 nM.
Regarding `Cn1nc(C(F)F)cc1Nc1nncn1[C@H]1CCc2sc(NC(=O)[C@H]3C[C@H](F)C3)c(C(=O)NCC3CC3)c2C1` [Example 354, (5S)—N-(cyclopropylmethyl)-5-[3-[[5-(difluoromethyl)-2-methylpyrazol-3-yl]amino]-1,2,4-triazol-4-yl]-2-[trans-(3-fluorocyclobutanecarbonyl)amino]-4,5,6,7-tetrahydro-1-benzothiophene-3-carboxamide], the IC50 is less than 1000 nM.
As for `Cn1nc(C(F)F)cc1Nc1nncn1[C@H]1CCc2sc(NC(=O)C3COC3)c(C(=O)NCC3CC3)c2C1` [Example 356, N-[(5S)-3-(cyclopropylmethylcarbamoyl)-5-[3-[[5-(difluoromethyl)-2-methylpyrazol-3-yl]amino]-1,2,4-triazol-4-yl]-4,5,6,7-tetrahydro-1-benzothiophen-2-yl]oxetane-3-carboxamide], the IC50 was less than 1000 nM.
In the case of `Cn1nc(C(F)F)cc1Nc1nncn1[C@H]1CCc2sc(NC(=O)C3CC(F)(F)C3)c(C(=O)NCC3CC3)c2C1` [Example 357, (5S)—N-(cyclopropylmethyl)-2-[(3,3-difluorocyclobutanecarbonyl)amino]-5-[3-[[5-(difluoromethyl)-2-methylpyrazol-3-yl]amino]-1,2,4-triazol-4-yl]-4,5,6,7-tetrahydro-1-benzothiophene-3-carboxamide], the IC50 was less than 1000 nM.
The value for `Cn1nc(C(F)F)cc1Nc1nncn1[C@H]1CCc2sc(NC(=O)CC(F)F)c(C(=O)NCC3CC3)c2C1` [Example 358, (5S)—N-(cyclopropylmethyl)-5-[3-[[5-(difluoromethyl)-2-methylpyrazol-3-yl]amino]-1,2,4-triazol-4-yl]-2-(3,3-difluoropropanoylamino)-4,5,6,7-tetrahydro-1-benzothiophene-3-carboxamide] was less than 1000 nM; that for `Cn1nc(C(F)F)cc1Nc1nncn1[C@H]1CCc2sc(NC(=O)C3CCC3)c(C(=O)NCC3CC3)c2C1` [Example 359, (5S)-2-(cyclobutanecarbonylamino)-N-(cyclopropylmethyl)-5-[3-[[5-(difluoromethyl)-2-methylpyrazol-3-yl]amino]-1,2,4-triazol-4-yl]-4,5,6,7-tetrahydro-1-benzothiophene-3-carboxamide] was less than 1000 nM.
On to `CC(C)C(=O)Nc1sc2c(c1C(=O)NCC1CC1)C[C@@H](n1cnnc1Nc1cc(C(F)F)nn1C)CC2` [Example 360, (5S)—N-(cyclopropylmethyl)-5-[3-[[5-(difluoromethyl)-2-methylpyrazol-3-yl]amino]-1,2,4-triazol-4-yl]-2-(2-methylpropanoylamino)-4,5,6,7-tetrahydro-1-benzothiophene-3-carboxamide], for which the half-inhibitory concentration (IC50) is less than 1000 nM.
Consider `Cn1nc(C(F)F)cc1Nc1nncn1[C@H]1CCc2sc(NC(=O)[C@H]3C[C@@H]3F)c(C(=O)NCC3CC3)c2C1` [Example 368, (5S)—N-(cyclopropylmethyl)-5-[3-[[5-(difluoromethyl)-2-methyl-pyrazol-3-yl]amino]-1,2,4-triazol-4-yl]-2-[[(1R,2S)-2-fluorocyclopropanecarbonyl]amino]-4,5,6,7-tetrahydrobenzothiophene-3-carboxamide], for which the half-inhibitory concentration (IC50) was less than 1000 nM.
